# Data as given in patent US9670227B2, “Thienopyrimidine derivatives, a process for their preparation and pharmaceutical compositions containing them” (LES LABORATOIRES SERVIER, priority 2013, dated 2017).
# Columns and labels:
# Mcl-1 protein = Mcl-1 protein (UniProtKB primary accession number: Q07820) (Homo sapiens, UniProt Q07820); assay: Inhibition of Mcl-1 by fluorescence polarisation, Method 1; format: binding; conditions: fluorescence polarisation; Method 1, or Method 2; read-out: IC50 (M) Mcl-1 FP
# In short: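 FP competition, 11-point compound titration in 5% final DMSO; protein and labelled probe at 5 nM and 1 nM final in HEPES/NaCl/Tween 20 buffer, pH 7.4.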
# [1] = system: H929 multiple myeloma tumour line; assay: In vitro cytotoxicity, Microculture Tetrazolium Assay; format: cell-based; conditions: Homo sapiens, NCI-H929, 48 h, H929 cells, 48 hours exposure, MTT; read-out: IC50 (μM) MTT H929
# Experimental: The cytotoxicity studies were carried out on the H929 multiple myeloma tumour line.
# The cells are distributed onto microplates and exposed to the test compounds for 48 hours.
# Sequence of Mcl-1 protein (Q07820 whole entry): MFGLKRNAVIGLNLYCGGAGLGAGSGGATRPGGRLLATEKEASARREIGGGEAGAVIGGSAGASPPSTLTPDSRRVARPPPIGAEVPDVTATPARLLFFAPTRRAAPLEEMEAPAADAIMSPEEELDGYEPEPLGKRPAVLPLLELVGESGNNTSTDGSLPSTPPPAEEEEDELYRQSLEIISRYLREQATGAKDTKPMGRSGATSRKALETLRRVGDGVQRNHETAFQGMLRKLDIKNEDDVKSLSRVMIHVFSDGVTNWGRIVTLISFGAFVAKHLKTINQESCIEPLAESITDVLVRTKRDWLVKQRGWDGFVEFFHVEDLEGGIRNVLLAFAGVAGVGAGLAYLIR
IC50 (Mcl-1 protein) [M],SMILES,IC50 [1] [µM]
3.5e-09,"CCN(CC)CCOc1ccc(-c2c(-c3ccc(F)cc3)sc3ncnc(OC(Cc4ccccc4OCc4ccnc(-c5ccccc5F)n4)C(=O)O)c23)c(C)c1Cl [Example 746, (2R)-2-{[(5Sa)-5-{3-chloro-4-[2-(diethylamino)ethoxy]-2-methylphenyl}-6-(4-fluorophenyl)thieno[2,3-d]pyrimidin-4-yl]oxy}-3-(2-{[2-(2-fluorophenyl)pyrimidin-4-yl]methoxy}phenyl)propanoic acid]",0.111
3.6e-09,"CCN(C)CCOc1ccc(-c2c(-c3ccc(F)cc3)sc3ncnc(OC(Cc4ccccc4OCc4ccnc(-c5ccccc5F)n4)C(=O)O)c23)c(C)c1Cl [Example 747, (2R)-2-{[(5Sa)-5-(3-chloro-4-{2-[ethyl(methyl)amino]ethoxy}-2-methylphenyl)-6-(4-fluorophenyl)thieno[2,3-d]pyrimidin-4-yl]oxy}-3-(2-{[2-(2-fluorophenyl)pyrimidin-4-yl]methoxy}phenyl)propanoic acid]",0.0263
9.48e-10,"Cc1cc(-c2nccc(COc3ccccc3CC(Oc3ncnc4sc(-c5ccc(F)cc5)c(-c5ccc(OCCN(C)C)c(Cl)c5C)c34)C(=O)O)n2)c(C)cn1 [Example 751, (2R)-2-{[(5Sa)-5-{3-chloro-4-[2-(dimethylamino)ethoxy]-2-methylphenyl}-6-(4-fluorophenyl)thieno[2,3-d]pyrimidin-4-yl]oxy}-3-(2-{[2-(2,5-dimethylpyridin-4-yl)pyrimidin-4-yl]methoxy}phenyl)propanoic acid]",0.008
5.5e-09,"Cc1c(-c2c(-c3ccc(F)cc3)sc3ncnc(OC(Cc4ccccc4OCc4ccnn4C(C)C)C(=O)O)c23)ccc(OCCN(C)C)c1Cl [Example 752, (2R)-2-{[(5Sa)-5-{3-chloro-4-[2-(dimethylamino)ethoxy]-2-methylphenyl}-6-(4-fluorophenyl)thieno[2,3-d]pyrimidin-4-yl]oxy}-3-(2-{[1-(propan-2-yl)-1H-pyrazol-5-yl]methoxy}phenyl)propanoic acid]",0.084
3e-09,"COCCOc1ccccc1-c1nccc(COc2ccccc2CC(Oc2ncnc3sc(-c4ccc(F)cc4)c(-c4ccc(OCCN(C)C)c(Cl)c4C)c23)C(=O)O)n1 [Example 753, (2R)-2-{[(5Sa)-5-{3-chloro-4-[2-(dimethylamino)ethoxy]-2-methylphenyl}-6-(4-fluorophenyl)thieno[2,3-d]pyrimidin-4-yl]oxy}-3-[2-({2-[2-(2-methoxyethoxy)phenyl]pyrimidin-4-yl}methoxy)phenyl]propanoic acid]",0.005
4.7e-09,"CCOCCn1nccc1COc1ccccc1CC(Oc1ncnc2sc(-c3ccc(F)cc3)c(-c3ccc(OCCN(C)C)c(Cl)c3C)c12)C(=O)O [Example 754, (2R)-2-{[(5Sa)-5-{3-chloro-4-[2-(dimethylamino)ethoxy]-2-methylphenyl}-6-(4-fluorophenyl)thieno[2,3-d]pyrimidin-4-yl]oxy}-3-(2-{[1-(2-ethoxyethyl)-1H-pyrazol-5-yl]methoxy}phenyl)propanoic acid]",0.089
4.65e-09,"Cc1c(-c2c(-c3cccc(F)c3F)sc3ncnc(OC(Cc4ccccc4OCc4ccnn4C(C)(C)C)C(=O)O)c23)ccc(OCCN(C)C)c1Cl [Example 755, (2R)-3-{2-[(1-tert-butyl-1H-pyrazol-5-yl)methoxy]phenyl}-2-{[(5Sa)-5-{3-chloro-4-[2-(dimethylamino)ethoxy]-2-methylphenyl}-6-(2,3-difluorophenyl)thieno[2,3-d]pyrimidin-4-yl]oxy}propanoic acid]",0.032
1.73e-09,"COc1ccccc1-c1nccc(COc2ccccc2CC(Oc2ncnc3sc(-c4ccc(OCc5ccccc5C)cc4)c(-c4ccc(OCCN5CCN(C)CC5)c(Cl)c4C)c23)C(=O)O)n1 [Example 767, (2R)-2-[((5Sa)-5-{3-chloro-2-methyl-4-[2-(4-methylpiperazin-1-yl)ethoxy]phenyl}-6-{4-[(2-methylbenzyl)oxy]phenyl}thieno[2,3-d]pyrimidin-4-yl)oxy]-3-(2-{[2-(2-methoxyphenyl)pyrimidin-4-yl]methoxy}phenyl)propanoic acid]",0.05
1.04e-09,"COc1ccccc1-c1nccc(COc2ccccc2CC(Oc2ncnc3sc(-c4ccc(OCc5ccc(C)cc5)cc4)c(-c4ccc(OCCN5CCN(C)CC5)c(Cl)c4C)c23)C(=O)O)n1 [Example 768, (2R)-2-[((5Sa)-5-{3-chloro-2-methyl-4-[2-(4-methylpiperazin-1-yl)ethoxy]phenyl}-6-{4-[(4-methylbenzyl)oxy]phenyl}thieno[2,3-d]pyrimidin-4-yl)oxy]-3-(2-{[2-(2-methoxyphenyl)pyrimidin-4-yl]methoxy}phenyl)propanoic acid]",0.039
9.48e-10,"COc1ccccc1-c1nccc(COc2ccccc2CC(Oc2ncnc3sc(-c4ccc(OCc5ccccn5)cc4)c(-c4ccc(OCCN5CCN(C)CC5)c(Cl)c4C)c23)C(=O)O)n1 [Example 769, (2R)-2-[((5Sa)-5-{3-chloro-2-methyl-4-[2-(4-methylpiperazin-1-yl)ethoxy]phenyl}-6-[4-(pyridin-2-ylmethoxy)phenyl]thieno[2,3-d]pyrimidin-4-yl)oxy]-3-(2-{[2-(2-methoxyphenyl)pyrimidin-4-yl]methoxy}phenyl)propanoic acid]",0.01
1.01e-09,"COc1ccc(COc2ccc(-c3sc4ncnc(OC(Cc5ccccc5OCc5ccnc(-c6ccccc6OC)n5)C(=O)O)c4c3-c3ccc(OCCN4CCN(C)CC4)c(Cl)c3C)cc2)cc1 [Example 770, (2R)-2-[((5Sa)-5-{3-chloro-2-methyl-4-[2-(4-methylpiperazin-1-yl)ethoxy]phenyl}-6-{4-[(4-methoxybenzyl)oxy]phenyl}thieno[2,3-d]pyrimidin-4-yl)oxy]-3-(2-{[2-(2-methoxyphenyl)pyrimidin-4-yl]methoxy}phenyl)propanoic acid]",0.01
1.04e-09,"COc1ccccc1-c1nccc(COc2ccccc2CC(Oc2ncnc3sc(-c4ccc(OCc5ccnn5C)cc4)c(-c4ccc(OCCN5CCN(C)CC5)c(Cl)c4C)c23)C(=O)O)n1 [Example 771, (2R)-2-[((5Sa)-5-{3-chloro-2-methyl-4-[2-(4-methylpiperazin-1-yl)ethoxy]phenyl}-6-{4-[(1-methyl-1H-pyrazol-5-yl)methoxy]phenyl}thieno[2,3-d]pyrimidin-4-yl)oxy]-3-(2-{[2-(2-methoxyphenyl)pyrimidin-4-yl]methoxy}phenyl)propanoic acid]",0.019
9.48e-10,"COc1ccccc1-c1nccc(COc2ccccc2CC(Oc2ncnc3sc(-c4ccc(OCc5cccnc5)cc4)c(-c4ccc(OCCN5CCN(C)CC5)c(Cl)c4C)c23)C(=O)O)n1 [Example 772, (2R)-2-[((5Sa)-5-{3-chloro-2-methyl-4-[2-(4-methylpiperazin-1-yl)ethoxy]phenyl}-6-[4-(pyridin-3-ylmethoxy)phenyl]thieno[2,3-d]pyrimidin-4-yl)oxy]-3-(2-{[2-(2-methoxyphenyl)pyrimidin-4-yl]methoxy}phenyl)propanoic acid]",0.01
